# From patent publication US20180338899A1, “INHIBITORS FOR METHYLATION-RELATED ENZYMES HAT1 AND KAT8” (priority 2015, published 2018)
# Counter-ions that a name gives are not always drawn. Like-named read-outs stand apart in the source and are kept apart here.
# Legend:
# [1] = target: T1, HAT1 (Homo sapiens, UniProt O14929); test: FDA library screening (analysis service PLEXERA) and binding strength, HAT1
# T1 sequence (O14929 1-419): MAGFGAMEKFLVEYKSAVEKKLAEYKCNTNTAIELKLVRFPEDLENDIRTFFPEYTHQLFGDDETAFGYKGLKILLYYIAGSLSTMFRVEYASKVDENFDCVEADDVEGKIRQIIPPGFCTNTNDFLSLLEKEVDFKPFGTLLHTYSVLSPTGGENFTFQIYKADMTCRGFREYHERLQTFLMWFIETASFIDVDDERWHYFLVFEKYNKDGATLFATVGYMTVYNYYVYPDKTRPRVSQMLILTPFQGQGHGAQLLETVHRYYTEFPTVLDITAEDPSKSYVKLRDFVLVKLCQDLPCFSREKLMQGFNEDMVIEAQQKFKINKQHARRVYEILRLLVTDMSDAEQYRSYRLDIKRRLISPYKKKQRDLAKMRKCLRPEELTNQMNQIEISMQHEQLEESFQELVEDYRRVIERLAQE
# Description: (§1) Medicines containing each as an active ingredient (provided that each medicine has an indication other than that for malignant tumors) have already been commercially available.
# (§2) Meanwhile, medicines containing each as an active ingredient (provided that each medicine has an indication other than that for malignant tumors) have already been commercially available.
# [2] = cited from earlier work
# [3] = target: T2, KAT8 (Homo sapiens, UniProt Q9H7Z6); test: FDA library screening (analysis service PLEXERA) and binding strength, KAT8
# T2 sequence (Q9H7Z6 1-458): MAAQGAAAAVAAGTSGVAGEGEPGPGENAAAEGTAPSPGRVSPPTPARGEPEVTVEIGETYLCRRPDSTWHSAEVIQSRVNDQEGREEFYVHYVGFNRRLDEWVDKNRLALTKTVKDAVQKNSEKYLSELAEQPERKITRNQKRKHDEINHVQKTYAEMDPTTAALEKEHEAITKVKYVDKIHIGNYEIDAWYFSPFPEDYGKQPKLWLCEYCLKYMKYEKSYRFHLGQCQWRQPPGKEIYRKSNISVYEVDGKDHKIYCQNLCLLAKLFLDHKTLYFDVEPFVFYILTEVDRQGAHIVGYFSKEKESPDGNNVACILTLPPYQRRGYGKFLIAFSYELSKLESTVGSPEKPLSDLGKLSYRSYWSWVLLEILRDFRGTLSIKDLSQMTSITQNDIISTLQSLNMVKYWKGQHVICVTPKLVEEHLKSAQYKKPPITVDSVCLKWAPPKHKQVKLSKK
# Description: as §1, §2
# [4] = test system: HAT1; test: Inhibitory effect of low-molecular-weight compounds on expression of HAT1 by RT-PCR; format: cell-based; conditions: FIG. 6
# [5] = test system: KAT8; test: Inhibitory effect of low-molecular-weight compounds on expression of KAT8 by RT-PCR; format: cell-based; conditions: FIG. 6
# [6] = test system: HLF cells; test: Cell death and cell growth suppression rate of HLF cells, 3D cell culture spheroid counter Cell3iMager; format: cell-based; conditions: high concentration (30 μM)
# Description: In addition, chlorpropamide or MG149 was added to HLF cells on culture plates and the cell death and cell growth suppression rate were inspected using a 3D cell culture spheroid counter Cell 3 i Mager (SCREEN, Inc., Kyoto). […] The rows indicate the days of culture and the columns show the kinds and concentrations of the compounds. The concentrations of chlorpropamide were represented in a ratio when the maximum effective blood concentration was set to 1. As the maximum effective blood concentration of chlorpropamide was used 30 µg/ml (which is a value described in the interview form of a commercially available medicine containing chlorpropamide as an active ingredient).
# [7] = target: T1, HAT1; conditions: stated as property of the compound, no test described; cited from earlier work
# [8] = target: T2, KAT8; conditions: stated as property of the compound, no test described; cited from earlier work
# [9] = interview form of commercially available medicine
# [10] = interview form, given as percent (external preparation / solution concentration)
Compound,inhibition of function of HAT1 [1],"maximum effective blood concentration (Cmax) [2, 9]",inhibition of function of KAT8 [3],other results
clofilium tosylate,inhibited only HAT1,0.11 µg/mL,,
C[N+]1(C)CCC(OC(=O)C(O)(c2ccccc2)C2CCCC2)C1 (centres unmarked) [glycopyrrolate],,,inhibited only KAT8,
CN(C(=O)CN(CCO)CC(=O)N(C)C(C)(C)Cc1ccccc1)C(C)(C)Cc1ccccc1 [oxethazaine],inhibited only HAT1,1 µg/mL,,
colistin sulfate,inhibited function of both HAT1 and KAT8,4.4 µg/mL,inhibited function of both HAT1 and KAT8,inhibitory effect on expression of HAT1 [4]: inhibitory effect; inhibitory effect on expression of KAT8 [5]: inhibitory effect
C=CC1=C(C(=O)O)N2C(=O)[C@@H](NC(=O)/C(=N\OCC(=O)O)c3csc(N)n3)[C@H]2SC1 [cefixime],,3.97 µg/mL,,
CCN(CC)C(=O)Nc1ccc(OCC(O)CNC(C)(C)C)c(C(C)=O)c1 (centres unmarked) [celiprolol hydrochloride],inhibited function of both HAT1 and KAT8,0.3 µg/mL,inhibited function of both HAT1 and KAT8,
CCCN1C[C@H](CSC)C[C@@H]2c3cccc4[nH]cc(c34)C[C@H]21 [pergolide mesylate],,0.026 µg/mL,inhibited only KAT8,
Cc1cc(=O)n(-c2ccccc2)n1C [antipyrine],inhibited only HAT1,50 µg/mL,,
NCC[C@H](O)C(=O)N[C@@H]1C[C@H](N)[C@@H](O[C@H]2O[C@H](CN)[C@@H](O)[C@H](O)[C@H]2O)[C@H](O)[C@H]1O[C@H]1O[C@H](CO)[C@@H](O)[C@H](N)[C@H]1O [amikacin hydrate],inhibited function of both HAT1 and KAT8,25 µg/mL,inhibited function of both HAT1 and KAT8,
C=C1[C@@H]2CC[C@H]3[C@]4(C)C[C@H](O[C@@H]5O[C@H](CO)[C@@H](OS(=O)(=O)O)[C@H](OS(=O)(=O)O)[C@H]5OC(=O)CC(C)C)C[C@@H](C(=O)O)[C@H]4CC[C@]3(C2)[C@@H]1O [atractyloside potassium salt],inhibited only HAT1,60 µg/mL,,
C[C@@H](O)[C@H]1C(=O)N2C(C(=O)O)=C(SCCN=CN)C[C@H]12 [imipenem],,82.8 µg/mL,,
O=C([O-])c1ccccc1-c1c2cc(Br)c(=O)cc-2oc2[c]([Hg+])c([O-])c(Br)cc12.[Na+].[Na+].[OH-] [merbromin],,,inhibited only KAT8,"maximum effective blood concentration (Cmax) [2, 10]: 2%"
Cc1cc(C(C)(C)CC(C)(C)C)ccc1OCCOCC[N+](C)(C)Cc1ccccc1.[Cl-] [methylbenzethonium chloride],inhibited function of both HAT1 and KAT8,1.93 µg/mL,inhibited function of both HAT1 and KAT8,"inhibitory effect on expression of HAT1 [4]: inhibitory effect; inhibitory effect on expression of KAT8 [5]: inhibitory effect; maximum effective blood concentration (Cmax) [2, 10]: 0.3%"
CO[C@]12C[C@@H](COC(=O)c3cncc(Br)c3)CN(C)[C@@H]1Cc1cn(C)c3cccc2c13 [nicergoline],inhibited only HAT1,96 ng eq./mL,,
CC(C(=O)O)c1ccc(C(=O)c2cccs2)cc1 (centres unmarked) [suprofen],inhibited only HAT1,,,"maximum effective blood concentration (Cmax) [2, 10]: 1%"
COC(=O)CCc1ccc(OCC(O)CNC(C)C)cc1 (centres unmarked) [esmolol hydrochloride],inhibited only HAT1,2.7 µg/mL,,
CC(C)NCC(O)COc1ccc(CCOCC2CC2)cc1 (centres unmarked) [betaxolol hydrochloride],inhibited function of both HAT1 and KAT8,0.0418 µg/mL,inhibited function of both HAT1 and KAT8,
CCCCCCCc1ccc(CCc2cccc(O)c2C(=O)O)cc1 [MG149],,,,cell growth suppression effect [6]: failed to elicit a sufficient cell growth suppression effect; inhibition of HAT1 [7]: does not inhibit HAT1; inhibition of KAT8 [8]: inhibits only KAT8
C=CCOc1ccccc1OCC(O)CNC(C)C (centres unmarked) [oxprenolol hydrochloride],inhibited function of both HAT1 and KAT8,0.3 µg/mL,inhibited function of both HAT1 and KAT8,maximum effective blood concentration ([2]; commercially available medicine): 30.18 µg/µL
CCc1oc2ccccc2c1C(=O)c1cc(Br)c(O)c(Br)c1 [benzbromarone],inhibited only HAT1,3.1 µg/mL,,
CC(C)NCC(O)COc1ccc(COCCOC(C)C)cc1 (centres unmarked) [bisoprolol fumarate],inhibited function of both HAT1 and KAT8,0.1 µg/mL,inhibited function of both HAT1 and KAT8,
CN(CCCCCCCCCCN(C)C(=O)Oc1cccc([N+](C)(C)C)c1)C(=O)Oc1cccc([N+](C)(C)C)c1 [demecarium bromide],inhibited function of both HAT1 and KAT8,,inhibited function of both HAT1 and KAT8,
CCN1CCN(C(=O)N[C@@H](C(=O)N[C@@H]2C(=O)N3C(C(=O)O)=C(CSc4nnnn4C)CS[C@H]23)c2ccc(O)cc2)C(=O)C1=O [cefoperazone dihydrate],,"1,000 ng/ml",,
CCc1cccc(CC)c1NC(=O)CN(CC(=O)O)CC(=O)O [etifenin],inhibited only HAT1,5.0 µg/mL,,
CN[C@H](CC(C)C)C(=O)N[C@H]1C(=O)N[C@@H](CC(N)=O)C(=O)N[C@H]2C(=O)N[C@H]3C(=O)N[C@H](C(=O)N[C@H](C(=O)O)c4cc(O)cc(O)c4-c4cc3ccc4O)[C@H](O)c3ccc(c(Cl)c3)Oc3cc2cc(c3O[C@@H]2O[C@H](CO)[C@@H](O)[C@H](O)[C@H]2O[C@H]2C[C@](C)(N)[C@H](O)[C@H](C)O2)Oc2ccc(cc2Cl)[C@H]1O [vancomycin hydrochloride],inhibited function of both HAT1 and KAT8,30 µg/mL,inhibited function of both HAT1 and KAT8,
CCCCNc1cc(C(=O)O)cc(S(N)(=O)=O)c1Oc1ccccc1 [bumetanide],,0.882 µg/mL,inhibited only KAT8,
"COCCc1ccc(OCC(O)CNC(C)C)cc1.COCCc1ccc(OCC(O)CNC(C)C)cc1.O=C(O)C(O)C(O)C(=O)O (racemic) [metoprolol-(+,−)(+)-tartrate salt]",,0.077 µg/mL,inhibited only KAT8,
CCC(=O)O[C@@H](O[P@](=O)(CCCCc1ccccc1)CC(=O)N1C[C@H](C2CCCCC2)C[C@H]1C(=O)O)C(C)C [fosinopril],,4 µg/mL,,
CC(N/C(=N\C#N)Nc1ccncc1)C(C)(C)C (centres unmarked) [pinacidil],inhibited only HAT1,2.5 µg/mL,,
C=CCc1ccccc1OCC(O)CNC(C)C (centres unmarked) [alprenolol hydrochloride],inhibited function of both HAT1 and KAT8,0.12 µg/mL,inhibited function of both HAT1 and KAT8,
